Measurements published in the supplement of paper PMC12463676, “Small-molecule dissolution of stress granules by redox modulation benefits ALS models” (Nature Chemical Biology, 2025).

What was measured:
[1] = compound: NC(=O)CCCCC1CCSS1 [lipoamide]; assay: thermal stability z-score vs DMSO; higher = more thermally stabilized by treatment; settings: HeLa, lipoamide concentration 100 µM
Description: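 Cellular thermal proteome profiling in HeLa cells. Cells were treated with 100 µM lipoamide for 1 h, with or without 1 mM arsenate for a further 1 h, then heated to ten temperatures (37-66.3 °C), and soluble protein was quantified by TMT mass spectrometry relative to 0.1% DMSO controls. The thermal stability score (sum of log2 fold changes minus the abundance score) was transformed to a z-score; mean of n = 3 experiments.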

[2] = compound: O=[As]([O-])(O)O.[K+] [potassium arsenate]; assay: as above; settings: HeLa; arsenate concentration 1 mM
Description: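 Cellular thermal proteome profiling in HeLa cells treated with 1 mM arsenate for 1 h (DMSO pretreatment), heated to ten temperatures (37-66.3 °C). Soluble protein was quantified by TMT mass spectrometry relative to DMSO controls; the thermal stability score was transformed to a z-score; mean of n = 3 experiments.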

[3] = arsenate co-treatment: 1 mM arsenate 1 h
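Also: each temperature applied for 3 min, abundance score taken as mean log2 fold change at the two lowest temperatures, z-score obtained by mean subtraction and division by SD.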

UniProt Q14684, sequence (Q14684 whole entry): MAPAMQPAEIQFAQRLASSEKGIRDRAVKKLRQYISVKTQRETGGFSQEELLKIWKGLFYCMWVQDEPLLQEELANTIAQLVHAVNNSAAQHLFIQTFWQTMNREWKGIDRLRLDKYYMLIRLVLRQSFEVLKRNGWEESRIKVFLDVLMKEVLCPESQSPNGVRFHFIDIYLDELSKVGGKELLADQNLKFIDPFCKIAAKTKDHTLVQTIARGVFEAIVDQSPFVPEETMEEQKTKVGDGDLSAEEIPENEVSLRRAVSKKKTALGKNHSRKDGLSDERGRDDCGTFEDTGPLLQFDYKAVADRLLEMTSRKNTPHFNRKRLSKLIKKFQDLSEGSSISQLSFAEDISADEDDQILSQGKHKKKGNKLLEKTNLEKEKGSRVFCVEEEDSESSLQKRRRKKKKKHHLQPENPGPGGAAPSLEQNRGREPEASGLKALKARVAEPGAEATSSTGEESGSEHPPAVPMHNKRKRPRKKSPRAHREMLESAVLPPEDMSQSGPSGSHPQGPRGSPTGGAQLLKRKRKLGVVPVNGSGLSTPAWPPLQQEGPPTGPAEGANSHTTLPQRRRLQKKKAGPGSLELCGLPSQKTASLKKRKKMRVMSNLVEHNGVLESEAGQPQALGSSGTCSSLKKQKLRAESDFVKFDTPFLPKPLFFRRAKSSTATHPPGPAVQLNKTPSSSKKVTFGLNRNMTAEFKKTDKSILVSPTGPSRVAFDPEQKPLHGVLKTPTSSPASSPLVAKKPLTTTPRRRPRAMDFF
UniProt P51948, sequence (P51948 whole entry): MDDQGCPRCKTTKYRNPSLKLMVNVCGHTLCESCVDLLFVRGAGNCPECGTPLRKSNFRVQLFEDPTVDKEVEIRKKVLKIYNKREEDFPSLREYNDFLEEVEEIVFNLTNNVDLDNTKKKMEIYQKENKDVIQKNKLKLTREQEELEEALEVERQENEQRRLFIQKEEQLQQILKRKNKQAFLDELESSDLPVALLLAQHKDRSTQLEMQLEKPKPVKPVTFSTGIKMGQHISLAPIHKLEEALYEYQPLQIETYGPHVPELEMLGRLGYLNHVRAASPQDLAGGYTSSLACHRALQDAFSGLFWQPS
UniProt Q9NVI1, sequence (Q9NVI1 whole entry): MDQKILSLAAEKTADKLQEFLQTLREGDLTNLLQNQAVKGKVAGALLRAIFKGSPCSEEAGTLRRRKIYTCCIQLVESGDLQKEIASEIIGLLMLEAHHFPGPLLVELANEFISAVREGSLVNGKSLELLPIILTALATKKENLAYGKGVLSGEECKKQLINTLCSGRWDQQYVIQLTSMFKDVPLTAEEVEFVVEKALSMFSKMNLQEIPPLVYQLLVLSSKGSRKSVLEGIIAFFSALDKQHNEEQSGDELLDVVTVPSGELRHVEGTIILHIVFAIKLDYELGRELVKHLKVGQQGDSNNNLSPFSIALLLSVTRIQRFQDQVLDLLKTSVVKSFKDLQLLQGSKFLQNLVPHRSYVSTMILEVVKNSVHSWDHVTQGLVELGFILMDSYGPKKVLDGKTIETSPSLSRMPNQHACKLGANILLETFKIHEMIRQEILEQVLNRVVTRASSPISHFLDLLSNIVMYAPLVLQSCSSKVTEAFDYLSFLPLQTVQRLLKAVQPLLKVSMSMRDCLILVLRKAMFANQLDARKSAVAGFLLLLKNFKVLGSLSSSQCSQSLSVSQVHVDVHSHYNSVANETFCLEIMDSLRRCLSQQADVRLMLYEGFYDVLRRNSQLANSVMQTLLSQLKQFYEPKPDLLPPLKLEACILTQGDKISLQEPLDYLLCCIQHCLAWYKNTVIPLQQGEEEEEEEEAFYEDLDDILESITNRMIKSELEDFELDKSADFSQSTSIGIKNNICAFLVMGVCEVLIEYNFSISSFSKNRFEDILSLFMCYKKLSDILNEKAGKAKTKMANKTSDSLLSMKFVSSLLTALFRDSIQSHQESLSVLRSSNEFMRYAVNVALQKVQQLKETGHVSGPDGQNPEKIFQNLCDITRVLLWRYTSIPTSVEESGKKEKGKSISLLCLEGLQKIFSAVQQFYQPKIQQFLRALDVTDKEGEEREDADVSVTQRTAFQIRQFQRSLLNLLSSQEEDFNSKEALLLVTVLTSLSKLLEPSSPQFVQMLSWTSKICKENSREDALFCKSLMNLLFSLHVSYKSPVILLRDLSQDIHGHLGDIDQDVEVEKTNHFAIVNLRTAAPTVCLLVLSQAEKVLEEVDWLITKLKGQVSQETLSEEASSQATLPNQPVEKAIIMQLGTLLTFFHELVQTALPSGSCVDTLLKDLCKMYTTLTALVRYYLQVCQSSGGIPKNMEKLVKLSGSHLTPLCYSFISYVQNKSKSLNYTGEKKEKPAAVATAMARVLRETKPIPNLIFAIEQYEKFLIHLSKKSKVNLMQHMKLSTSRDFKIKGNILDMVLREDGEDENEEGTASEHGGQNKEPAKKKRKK
UniProt Q9H0H5, sequence (Q9H0H5 whole entry): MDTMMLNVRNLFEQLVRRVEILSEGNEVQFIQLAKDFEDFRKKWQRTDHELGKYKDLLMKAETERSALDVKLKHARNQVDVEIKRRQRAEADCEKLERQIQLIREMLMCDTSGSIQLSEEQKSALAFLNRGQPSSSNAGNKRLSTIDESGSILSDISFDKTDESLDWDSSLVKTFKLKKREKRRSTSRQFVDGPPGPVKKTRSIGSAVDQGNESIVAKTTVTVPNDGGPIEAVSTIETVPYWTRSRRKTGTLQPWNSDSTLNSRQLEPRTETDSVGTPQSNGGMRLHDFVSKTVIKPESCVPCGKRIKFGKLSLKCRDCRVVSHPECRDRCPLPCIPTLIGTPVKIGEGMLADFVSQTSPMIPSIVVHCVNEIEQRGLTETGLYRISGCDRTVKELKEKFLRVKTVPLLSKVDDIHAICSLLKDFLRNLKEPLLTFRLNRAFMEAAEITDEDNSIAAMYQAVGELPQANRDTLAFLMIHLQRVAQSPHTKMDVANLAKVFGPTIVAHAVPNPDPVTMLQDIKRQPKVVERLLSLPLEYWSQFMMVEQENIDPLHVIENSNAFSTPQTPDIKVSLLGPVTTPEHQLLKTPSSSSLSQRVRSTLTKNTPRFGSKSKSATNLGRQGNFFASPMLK
UniProt P13929, sequence (P13929 whole entry): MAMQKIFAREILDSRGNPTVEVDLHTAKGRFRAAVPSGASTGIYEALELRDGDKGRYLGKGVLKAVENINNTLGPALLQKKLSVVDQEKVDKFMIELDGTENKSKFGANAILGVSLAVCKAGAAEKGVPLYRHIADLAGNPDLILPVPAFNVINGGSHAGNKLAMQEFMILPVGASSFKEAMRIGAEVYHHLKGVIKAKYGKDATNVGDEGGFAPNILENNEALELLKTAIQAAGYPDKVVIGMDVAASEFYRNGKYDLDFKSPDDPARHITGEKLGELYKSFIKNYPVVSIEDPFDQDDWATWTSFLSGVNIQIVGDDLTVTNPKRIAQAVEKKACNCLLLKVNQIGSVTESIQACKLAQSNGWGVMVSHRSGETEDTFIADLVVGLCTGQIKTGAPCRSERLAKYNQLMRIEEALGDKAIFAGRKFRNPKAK
UniProt Q6NUQ4, sequence (Q6NUQ4 whole entry): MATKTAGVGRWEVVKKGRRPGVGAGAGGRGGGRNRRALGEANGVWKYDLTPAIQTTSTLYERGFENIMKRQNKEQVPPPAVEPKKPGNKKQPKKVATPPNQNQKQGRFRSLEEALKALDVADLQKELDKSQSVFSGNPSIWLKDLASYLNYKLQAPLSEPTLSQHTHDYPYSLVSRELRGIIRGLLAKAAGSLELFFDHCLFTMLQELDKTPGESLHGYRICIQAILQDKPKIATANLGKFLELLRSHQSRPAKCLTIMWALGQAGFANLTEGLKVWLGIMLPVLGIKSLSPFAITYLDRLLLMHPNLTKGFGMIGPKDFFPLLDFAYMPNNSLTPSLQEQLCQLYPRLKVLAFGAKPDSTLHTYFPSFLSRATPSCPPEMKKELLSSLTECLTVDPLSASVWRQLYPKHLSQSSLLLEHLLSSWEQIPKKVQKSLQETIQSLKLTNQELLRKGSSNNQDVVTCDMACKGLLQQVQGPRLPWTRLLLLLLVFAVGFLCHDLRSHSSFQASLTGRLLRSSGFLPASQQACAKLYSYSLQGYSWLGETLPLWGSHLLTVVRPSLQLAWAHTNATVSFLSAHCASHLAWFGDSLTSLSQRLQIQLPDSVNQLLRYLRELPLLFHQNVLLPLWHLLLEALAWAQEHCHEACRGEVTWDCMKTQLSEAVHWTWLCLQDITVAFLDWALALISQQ
UniProt Q9Y232, sequence (Q9Y232 whole entry): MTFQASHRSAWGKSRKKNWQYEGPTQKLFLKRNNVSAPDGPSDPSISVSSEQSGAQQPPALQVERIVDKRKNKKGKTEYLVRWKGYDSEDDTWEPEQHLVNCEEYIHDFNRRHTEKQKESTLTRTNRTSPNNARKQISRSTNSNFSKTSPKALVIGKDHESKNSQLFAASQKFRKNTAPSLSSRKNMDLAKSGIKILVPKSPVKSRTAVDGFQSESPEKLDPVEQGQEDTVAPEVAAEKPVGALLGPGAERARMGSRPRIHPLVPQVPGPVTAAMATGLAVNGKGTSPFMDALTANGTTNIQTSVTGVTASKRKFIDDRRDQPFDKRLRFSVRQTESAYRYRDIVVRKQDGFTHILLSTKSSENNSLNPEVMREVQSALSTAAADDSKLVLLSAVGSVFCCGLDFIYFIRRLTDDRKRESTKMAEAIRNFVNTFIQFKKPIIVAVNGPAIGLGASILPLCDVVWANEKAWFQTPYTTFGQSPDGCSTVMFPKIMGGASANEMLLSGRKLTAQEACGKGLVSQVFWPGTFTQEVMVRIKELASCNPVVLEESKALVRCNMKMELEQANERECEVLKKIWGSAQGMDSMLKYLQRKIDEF
UniProt P05386, sequence (P05386 whole entry): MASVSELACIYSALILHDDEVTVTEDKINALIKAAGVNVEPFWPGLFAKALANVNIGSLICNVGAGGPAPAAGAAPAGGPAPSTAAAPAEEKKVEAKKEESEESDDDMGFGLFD
UniProt Q9NQP4, sequence (Q9NQP4 whole entry): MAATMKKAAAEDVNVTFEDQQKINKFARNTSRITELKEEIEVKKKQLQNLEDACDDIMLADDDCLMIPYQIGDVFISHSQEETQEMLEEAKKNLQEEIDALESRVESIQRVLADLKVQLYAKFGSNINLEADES

Target	thermal stability z-score [1, 3]	thermal stability z-score ([1]; arsenate co-treatment: none)	thermal stability z-score [2]
GID8 (UniProt Q9NWU2)	0.00199	0.0715	-0.0145
SDE2 (UniProt Q6IQ49)	-0.399	-0.282	-1.16
TRAPPC2L (UniProt Q9UL33)	-0.426	0.338	-0.119
NME7 (UniProt Q9Y5B8)	0.000387	0.0484	-0.13
FGD4 (UniProt Q96M96)	0.0849	-0.0145	-0.203
FAM118B (UniProt Q9BPY3)	0.49	-0.244	0.57
SKA3 (UniProt Q8IX90)	-0.0726	0.132	-0.18
ALDH4A1 (UniProt P30038)	-0.59	-0.14	1.19
GOLGA3 (UniProt Q08378)	0.291	0.128	0.587
PPIP5K1 (UniProt Q6PFW1)	-0.0717	0.0968	0.125
SOS1 (UniProt Q07889)	0.324	0.304	0.167
C1GALT1 (UniProt Q9NS00)	-0.00802	-0.575	-0.0716
WDR41 (UniProt Q9HAD4)	-0.212	-0.267	-0.285
SET (UniProt Q01105)	0.154	0.00988	-0.503
NEMF (UniProt O60524)	-0.153	-0.18	0.135
ALG8 (UniProt Q9BVK2)	0.425	-0.262	0.491
KCMF1 (UniProt Q9P0J7)	-0.251	-0.483	0.636
CUL3 (UniProt Q13618)	-0.1	-0.422	0.158
NAA15 (UniProt Q9BXJ9)	0.838	0.593	0.812
ATIC (UniProt P31939)	0.0982	-0.0656	-1.07
L2HGDH (UniProt Q9H9P8)	-0.736	-0.362	0.523
PPP6R1 (UniProt Q9UPN7)	-0.476	-0.635	-0.671
RACGAP1 (UniProt Q9H0H5)	-0.198	-0.0575	-0.148
PPP1R15B (UniProt Q5SWA1)	-0.102	-0.0322	-0.0349

Target	thermal stability z-score [1, 3]	thermal stability z-score ([1]; arsenate co-treatment: none)	thermal stability z-score [2]
ZNF451 (UniProt Q9Y4E5)	0.0272	0.0565	0.171
RTKN (UniProt Q9BST9)	-0.183	-0.084	-0.395
ICOSLG (UniProt O75144)	-0.136	-0.0493	-0.984
ERBB2IP (UniProt Q96RT1)	0.354	-0.307	-1.94
MNAT1 (UniProt P51948)	-0.257	-0.423	0.102
CEP55 (UniProt Q53EZ4)	-0.129	-0.0226	-0.0317
FANCI (UniProt Q9NVI1)	-0.722	-0.439	-1.2
TRIM5 (UniProt Q9C035)	0.224	0.183	0.259
CNPY4 (UniProt Q8N129)	-1.84	-1.57	0.532
CDK5 (UniProt Q00535)	-0.0682	0.212	0.0671
ABHD6 (UniProt Q9BV23)	-1.6	-1.07	-0.179
LACE1 (UniProt Q8WV93)	0.0464	0.0601	-0.0299
CLPX (UniProt O76031)	-0.306	-0.172	0.139
RANBP9 (UniProt Q96S59)	-0.364	-0.234	-0.508
RPS24 (UniProt P62847)	0.103	-0.101	-0.971
PALLD (UniProt Q8WX93)	-0.57	0.141	-0.249
ATP2B2 (UniProt Q01814)	-0.146	-0.424	0.106
CDYL (UniProt Q9Y232)	2.68	1.28	0.0814
RAB7A (UniProt P51149)	0.164	0.352	0.258
SNAPIN (UniProt O95295)	0.164	0.647	0.267
IFI30 (UniProt P13284)	1.71	0.524	-0.049
RRP1B (UniProt Q14684)	0.131	0.133	-0.0634
ARFGEF1 (UniProt Q9Y6D6)	-0.0608	-0.273	-0.154
RNMT (UniProt O43148)	0.428	0.541	0.381

Target	thermal stability z-score [1, 3]	thermal stability z-score ([1]; arsenate co-treatment: none)	thermal stability z-score [2]
LMNB2 (UniProt Q03252)	0.686	0.0237	0.839
RPLP1 (UniProt P05386)	1.44	0.753	0.00244
AGR2 (UniProt O95994)	-2.84	-2.57	-0.355
CHML (UniProt P26374)	0.57	0.276	-0.161
NRBF2 (UniProt Q96F24)	0.638	0.117	-0.0833
FKBPL (UniProt Q9UIM3)	0.222	0.087	-0.0646
NDUFAF6 (UniProt Q330K2)	0.234	0.0618	0.0349
PSMA5 (UniProt P28066)	0.148	0.204	-0.238
RPL38 (UniProt P63173)	0.982	0.439	-0.704
AGK (UniProt Q53H12)	0.541	0.38	0.573
RNF169 (UniProt Q8NCN4)	-0.0589	0.0354	-0.0867
RPL22L1 (UniProt Q6P5R6)	-0.147	-0.537	-0.919
TACO1 (UniProt Q9BSH4)	0.0383	-0.0229	-0.113
SMC2 (UniProt O95347)	0.528	0.546	0.802
PIK3C2A (UniProt O00443)	-0.267	0.213	0.167
PSMB2 (UniProt P49721)	1.49	1.31	1.08
TTK (UniProt P33981)	-0.85	-0.0774	0.742
PFDN4 (UniProt Q9NQP4)	0.286	0.37	-0.445
SH3RF1 (UniProt Q7Z6J0)	-0.0346	0.00665	-0.327
TMEM214 (UniProt Q6NUQ4)	-0.283	-0.131	-0.768
RC3H1 (UniProt Q5TC82)	-0.195	-0.0428	-0.351
ENO3 (UniProt P13929)	0.308	-0.4	-0.432
RABGAP1 (UniProt Q9Y3P9)	-0.333	-0.253	0.318
